Measured values: patent publication US20160312240A1, “MODIFIED PYR/PYL RECEPTORS ACTIVATED BY ORTHOGONAL LIGANDS” (The Regents of the University of California, priority 2010, published 2016)

Key:
wild-type PYR1 protein = target: T1, wild-type PYR1 protein (Arabidopsis thaliana, UniProt O49686); assay: In vitro PP2C phosphatase activity assay (receptor activation = inhibition of PP2C); format: biochemical; settings: increasing concentrations, 10 mM Mn++ buffer, FIG. 1
T1 construct: made in house
T1 sequence (O49686 whole entry): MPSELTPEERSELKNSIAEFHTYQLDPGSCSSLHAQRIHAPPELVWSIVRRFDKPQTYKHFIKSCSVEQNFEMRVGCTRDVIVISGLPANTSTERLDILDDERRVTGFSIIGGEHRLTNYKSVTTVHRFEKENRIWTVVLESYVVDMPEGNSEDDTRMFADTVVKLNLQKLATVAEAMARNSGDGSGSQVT
T1 sequence (Q9CAJ0 23-511 partner): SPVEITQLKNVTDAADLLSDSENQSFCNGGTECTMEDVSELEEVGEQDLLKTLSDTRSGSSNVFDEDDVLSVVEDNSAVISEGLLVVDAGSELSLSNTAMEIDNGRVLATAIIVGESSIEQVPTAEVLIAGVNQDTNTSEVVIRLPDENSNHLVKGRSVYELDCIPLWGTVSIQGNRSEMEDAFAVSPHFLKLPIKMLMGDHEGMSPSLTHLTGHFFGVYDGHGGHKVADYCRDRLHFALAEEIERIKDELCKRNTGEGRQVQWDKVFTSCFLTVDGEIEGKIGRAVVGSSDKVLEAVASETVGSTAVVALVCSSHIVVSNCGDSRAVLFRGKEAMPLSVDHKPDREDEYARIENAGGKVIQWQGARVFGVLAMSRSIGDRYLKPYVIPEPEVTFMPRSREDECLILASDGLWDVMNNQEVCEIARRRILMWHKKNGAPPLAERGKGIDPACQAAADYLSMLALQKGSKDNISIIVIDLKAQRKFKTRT
Protocol: (§1) FIGS. 1A-1B. PYR1 mutant 27-18 confers responsiveness to fenhexamid but not ABA. Representative PYR1 mutant 27-18 (comprising S47P, K59R, and Y120H substitution mutations) was tested for responsiveness to abscisic acid (“ABA”) (FIG. 1A) and fenhexamid (FIG. 1B) at increasing concentrations as compared to a wild-type PYR1 control using an in vitro PP2C phosphatase activity assay.
(§2) To probe orthogonal receptor-ligand interactions further, recombinant protein was expressed for the fenhexamid-responsive mutant 27-18, which has three mutations in PYR1. 6×-His-PYR1(27-18) protein was expressed and purified alongside wild-type PYR1 protein. Both proteins were tested for their ability to inhibit PP2C activity in response to increasing concentrations of either ABA or fenhexamid using phosphatase activity assays, in which activation of the PYR/PYL receptor is monitored by inhibition of PP2C activity (FIG. 1).

[1] = target: T2, 6×-His-PYR1(27-18) (S47P, K59R, Y120H) (Arabidopsis thaliana, UniProt O49686, K59R/S47P/Y120H); assay: as above; format: biochemical; settings: mutant 27-18; increasing concentrations; 10 mM Mn++ buffer; FIG. 1
T2 construct: 6x-His (N); made in house
T2 sequence (O49686 whole entry S47P/K59R/Y120H): as the sequence (O49686 whole entry) above, with S47P, K59R, Y120H counted along it
T2 sequence (Q9CAJ0 23-511, stated change not applied, further chain): as the sequence (Q9CAJ0 23-511 partner) above
Protocol: as §1, §2

PYR1 mutant BTH-9 = target: T3, PYR1 mutant BTH-9 (Arabidopsis thaliana, UniProt O49686, F159L); assay: Yeast two-hybrid assay confirming BTH responsiveness; format: cell-based; settings: 50, 100, and 200 μM (applied 25, 50, 100, 200 μM)
T3 construct: expressed in transfected cells; host or cells: Saccharomyces cerevisiae two-hybrid reporter strain expressing pAD-HAB1 (strain not restated for BTH)
T3 sequence (O49686 whole entry F159L): as the sequence (O49686 whole entry) above, with F159L counted along it
T3 sequence (Q9CAJ0 23-511 partner): as the sequence (Q9CAJ0 23-511 partner) above
Protocol: (§3) Plasmids for three representative mutant clones (27-9, 27-18, and 27-36) were isolated from the primary yeast cells and transformed into a pAD-HAB1 expressing YRG-2 reporter strain (Park et al., Science 324:1068-1071 (2009)) in which Ga14 drives expression of a LacZ reporter gene to allow colorimetric indication of agonist response. Fenhexamid was applied at concentrations of 1, 5, 10, 25, and 50 μM. […] Mutant 27-36 was responsive to fenhexamid at 25 and 50 μM concentrations.
Given the plasticity of PYR1 indicated by these experiments, we sought to establish if an orthogonal receptor could be isolated for a target ligand that was not prescreened for weak binding using the yeast competition assays described above. The same screening methodology as described above was used to screen for mutants that respond to BTH (acibenzolar-s-methyl). […] Yeast two-hybrid assay confirmed BTH responsiveness for representative mutant clone BTH-9. […] was applied at concentrations of 25, 50, 100, and 200 μM, and mutant BTH-9 was responsive to BTH at concentrations of 50, 100, and 200 μM. Thus, the plasticity of PYR1 enables many orthogonal receptor variants to be isolated.

PYR1 mutant 74A-2 = target: T4, PYR1 mutant 74A-2 (Arabidopsis thaliana, UniProt O49686, K59R/S92T); assay: Yeast two-hybrid assay confirming bromoxynil responsiveness; format: cell-based; settings: 10, 25, and 50 μM (applied 5, 10, 25, 50 μM)
T4 construct: expressed in transfected cells; host or cells: Saccharomyces cerevisiae two-hybrid reporter strain expressing pAD-HAB1 (YRG-2 is named only for the fenhexamid confirmation)
T4 sequence (O49686 whole entry K59R/S92T): as the sequence (O49686 whole entry) above, with K59R, S92T counted along it
T4 sequence (Q9CAJ0 23-511, further chain): as the sequence (Q9CAJ0 23-511 partner) above
Protocol: as §3
(§4) Screens for bromoxynil (Table 2), dichlobenil (Table 3), and benoxacor (Table 4) responsive PYR1 mutants were conducted as described above for fenhexamid, each utilizing 200 μM test compound and the A′ library, generated as described above. Yeast two-hybrid assay confirmed bromoxynil responsiveness for representative mutant clones 74A-1 and 74A-2. Bromoxynil was applied at concentrations of 5, 10, 25, and 50 μM. Both mutants 74A-1 and 74A-2 were responsive to bromoxynil at concentrations of 10, 25, and 50 μM.

PYR1 mutant 74A-1 = target: T5, PYR1 mutant 74A-1 (Arabidopsis thaliana, UniProt O49686, H60R/K59R/N151D); assay: as above; format: cell-based; settings: 10, 25, and 50 μM (applied 5, 10, 25, 50 μM)
T5 construct: expressed in transfected cells
T5 sequence (Q9CAJ0 23-511): as the sequence (Q9CAJ0 23-511 partner) above
T5 sequence (O49686 whole entry K59R/H60R/N151D): as the sequence (O49686 whole entry) above, with K59R, H60R, N151D counted along it
Protocol: as §3, §4

[2] = tested on: PYR/PYL-PP2C protein-protein interactions; assay: Yeast competition screen: reduction of ABA-promoted PYR/PYL-PP2C interaction; format: cell-based; settings: 100 nM ABA and 100 μM test chemical (1000-fold excess), yeast strains
Source text: To isolate PYR1 orthogonal receptors, a two-step process was used. First, a large collection of compounds was screened to identify compounds that weakly interact with receptors, defined as such by their ability to displace receptor-bound ABA in competition experiments. Once weak binders were identified, those with the most desirable properties from an end-use perspective were used as targets for iterative mutagenesis and selection schemes. Pre-selection of weak-binding ligands improves the frequency of isolating new receptor proteins, because fewer alterations of the ligand binding site are required to achieve molecular recognition. However, pre-selection is not a prerequisite for success.
Pre-selection of ligands. 74 structurally diverse agrochemicals were obtained, selected from a larger set of approximately 1500 commercially available agrochemicals. These 74 compounds were tested for their ability to reduce ABA-promoted PYR/PYL-PP2C protein-protein interactions in suitable yeast strains when added at 1000-fold excess relative to ABA (i.e. 100 nM ABA and 100 μM test chemical).

PYR/PYL receptors = assay: Observed weak agonism of PYR/PYL receptors; settings: weak PYR/PYL agonist
Protocol: (§5) To test these two hypotheses, a series of K59 mutants were constructed in PYR1 and examined for their sensitivity to the native ligand ABA and the orthogonal ligand dichlobenil (Table 6). Dichlobenil was chosen as a model orthogonal ligand for these studies because it was observed that it is a weak PYR/PYL agonist (i.e., it can weakly activate receptors at concentrations of 200 μM or higher). Dichlobenil therefore provides a useful test molecule with which to probe a mutant's sensitivity to an orthogonal ligand.

wild-type PYR1 (WT) = wild-type PYR1 (WT) (Arabidopsis thaliana, UniProt O49686); assay: Responsiveness of PYR1 K59 mutants to ABA and dichlobenil; format: cell-based
wild-type PYR1 (WT), sequence (O49686 whole entry): as the sequence (O49686 whole entry) above
wild-type PYR1 (WT), sequence (Q9CAJ0 23-511 partner): as the sequence (Q9CAJ0 23-511 partner) above
Protocol: as §5

PYR1 = PYR1 (Arabidopsis thaliana, UniProt O49686); settings: cited from earlier work
PYR1, sequence (O49686 whole entry): as the sequence (O49686 whole entry) above

PYL2 = PYL2 (Arabidopsis thaliana, UniProt O80992); settings: cited from earlier work
PYL2, sequence (O80992 whole entry): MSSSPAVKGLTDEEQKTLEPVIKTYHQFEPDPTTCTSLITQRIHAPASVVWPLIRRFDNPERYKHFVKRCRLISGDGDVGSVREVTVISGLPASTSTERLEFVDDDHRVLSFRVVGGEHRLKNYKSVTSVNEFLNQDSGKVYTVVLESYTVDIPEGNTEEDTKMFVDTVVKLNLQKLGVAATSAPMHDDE

PYL1 = PYL1 (Arabidopsis thaliana, UniProt Q8VZS8); settings: cited from earlier work
PYL1, sequence (Q8VZS8 whole entry): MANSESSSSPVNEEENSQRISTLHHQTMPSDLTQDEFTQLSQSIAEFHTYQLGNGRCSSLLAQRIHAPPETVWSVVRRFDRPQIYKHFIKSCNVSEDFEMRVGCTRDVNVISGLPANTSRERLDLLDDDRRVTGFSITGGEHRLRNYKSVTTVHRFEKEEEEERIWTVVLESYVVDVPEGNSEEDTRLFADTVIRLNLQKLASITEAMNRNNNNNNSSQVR

CC1=CC(=O)CC(C)(C)[C@@]1(O)/C=C/C(C)=C\C(=O)O [ABA, abscisic acid]
Receptor activation (inhibition of PP2C activity) (wild-type PYR1 protein): efficiently activated
Receptor activation (inhibition of PP2C activity) [1]: failed to activate

CSC(=O)c1cccc2nnsc12 [BTH, acibenzolar-s-methyl]
Responsiveness to BTH (yeast two-hybrid) (PYR1 mutant BTH-9): responsive

N#Cc1cc(Br)c(O)c(Br)c1 [bromoxynil]
Responsiveness to bromoxynil (yeast two-hybrid) (PYR1 mutant 74A-2): responsive
Responsiveness to bromoxynil (yeast two-hybrid) (PYR1 mutant 74A-1): responsive
ability to reduce ABA-promoted PYR/PYL-PP2C protein-protein interactions [2]: compete for ABA

N#Cc1cc(Cl)c(O)c(Cl)c1 [chloroxynil]
ability to reduce ABA-promoted PYR/PYL-PP2C protein-protein interactions [2]: compete for ABA

O=c1oc2ccccc2c(O)c1C1CCCc2ccccc21 (centres unmarked) [coumatetralyl]
ability to reduce ABA-promoted PYR/PYL-PP2C protein-protein interactions [2]: compete for ABA

N#Cc1c(Cl)cccc1Cl [dichlobenil]
Concentration at which receptors are weakly activated (PYR/PYL receptors): ≥ 200 µM
Responsiveness, Dichlobenil [50 μM] (wild-type PYR1 (WT)): not activated
ability to reduce ABA-promoted PYR/PYL-PP2C protein-protein interactions [2]: compete for ABA

O=S(=O)(NCc1ccccn1)c1ccc(Br)c2ccccc12 [pyrabactin]
Responsiveness to pyrabactin (PYR1): strong responsiveness
Responsiveness to pyrabactin (PYL2): do not
Responsiveness to pyrabactin (PYL1): strong responsiveness
